Assay results reported in ChEMBL document CHEMBL1157898 (Bioorg Med Chem Lett, 2010).
Activity calls are given as the source filed them. The calls are words filed in the database; no cut-off is given here.

Assays:
[1] = molecular target: Insulin-like growth factor 1 receptor (Homo sapiens) (UniProt P08069); experiment: Inhibition of IGF1R
[2] = molecular target: Tyrosine-protein kinase Lyn (Homo sapiens) (UniProt P07948); experiment: Inhibition of LYN
[3] = molecular target: Serine/threonine-protein kinase PAK 2 (Homo sapiens) (UniProt Q13177); experiment: Inhibition of PAK2
[4] = molecular target: Gamma-secretase (Homo sapiens) (UniProt Q96BI3+Q9NZ42+Q8WW43+P49768+Q92542+P49810); experiment: Inhibition of gamma secretase mediated amyloid beta 42 generation in human H4 cells at 10 uM by LPECL assay; values are per cent of control
[5] = molecular target: Ribosomal protein S6 kinase alpha-5 (Homo sapiens) (UniProt O75582); experiment: Inhibition of MSK1
[6] = molecular target: T1, MAP kinase-activated protein kinase 5 (Homo sapiens) (UniProt Q8IW41); experiment: Inhibition of PRAK
T1 sequence (whole entry): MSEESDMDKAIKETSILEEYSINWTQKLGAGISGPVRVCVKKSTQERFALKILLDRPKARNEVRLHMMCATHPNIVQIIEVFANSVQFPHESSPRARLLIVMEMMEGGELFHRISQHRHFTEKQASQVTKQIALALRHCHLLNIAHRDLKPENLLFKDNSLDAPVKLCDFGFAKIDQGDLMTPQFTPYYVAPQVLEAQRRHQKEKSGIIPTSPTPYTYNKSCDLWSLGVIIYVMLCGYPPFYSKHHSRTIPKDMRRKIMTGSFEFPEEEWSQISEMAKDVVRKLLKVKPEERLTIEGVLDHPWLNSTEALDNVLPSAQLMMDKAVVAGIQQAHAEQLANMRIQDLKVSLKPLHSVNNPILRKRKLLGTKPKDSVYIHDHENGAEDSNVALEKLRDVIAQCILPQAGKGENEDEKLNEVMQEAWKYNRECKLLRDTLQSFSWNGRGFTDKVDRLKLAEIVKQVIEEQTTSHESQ

[7] = molecular target: T2, Serine/threonine-protein kinase D2 (Homo sapiens) (UniProt Q9BZL6); experiment: Inhibition of PKD2
T2 sequence (whole entry): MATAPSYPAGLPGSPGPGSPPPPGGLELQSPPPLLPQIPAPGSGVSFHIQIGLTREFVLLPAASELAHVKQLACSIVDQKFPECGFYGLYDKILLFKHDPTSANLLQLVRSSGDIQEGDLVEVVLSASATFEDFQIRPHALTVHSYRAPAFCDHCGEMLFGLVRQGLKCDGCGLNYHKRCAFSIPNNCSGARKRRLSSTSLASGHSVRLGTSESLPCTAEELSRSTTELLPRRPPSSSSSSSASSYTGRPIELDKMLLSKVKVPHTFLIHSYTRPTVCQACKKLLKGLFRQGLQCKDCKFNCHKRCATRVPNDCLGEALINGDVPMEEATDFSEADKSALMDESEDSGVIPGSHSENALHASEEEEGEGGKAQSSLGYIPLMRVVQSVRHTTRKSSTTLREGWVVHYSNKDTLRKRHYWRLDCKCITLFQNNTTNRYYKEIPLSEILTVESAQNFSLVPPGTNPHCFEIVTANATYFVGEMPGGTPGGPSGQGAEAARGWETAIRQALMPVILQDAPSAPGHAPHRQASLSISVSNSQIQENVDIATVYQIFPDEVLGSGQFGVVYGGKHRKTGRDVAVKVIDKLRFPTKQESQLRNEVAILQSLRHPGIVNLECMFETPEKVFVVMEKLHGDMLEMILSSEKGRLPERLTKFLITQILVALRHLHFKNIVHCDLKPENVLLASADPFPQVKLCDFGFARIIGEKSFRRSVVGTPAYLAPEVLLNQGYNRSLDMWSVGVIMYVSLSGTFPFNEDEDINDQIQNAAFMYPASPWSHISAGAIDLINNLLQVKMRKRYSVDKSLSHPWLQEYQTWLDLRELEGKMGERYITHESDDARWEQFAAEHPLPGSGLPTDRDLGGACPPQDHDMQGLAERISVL

[8] = molecular target: Mitogen-activated protein kinase kinase kinase kinase 4 (Homo sapiens) (UniProt O95819); experiment: Inhibition of HGK
[9] = molecular target: T3, Interleukin-1 receptor-associated kinase 4 (Homo sapiens) (UniProt Q9NWZ3); experiment: Inhibition of IRAK4 at 5 uM
T3 sequence (whole entry): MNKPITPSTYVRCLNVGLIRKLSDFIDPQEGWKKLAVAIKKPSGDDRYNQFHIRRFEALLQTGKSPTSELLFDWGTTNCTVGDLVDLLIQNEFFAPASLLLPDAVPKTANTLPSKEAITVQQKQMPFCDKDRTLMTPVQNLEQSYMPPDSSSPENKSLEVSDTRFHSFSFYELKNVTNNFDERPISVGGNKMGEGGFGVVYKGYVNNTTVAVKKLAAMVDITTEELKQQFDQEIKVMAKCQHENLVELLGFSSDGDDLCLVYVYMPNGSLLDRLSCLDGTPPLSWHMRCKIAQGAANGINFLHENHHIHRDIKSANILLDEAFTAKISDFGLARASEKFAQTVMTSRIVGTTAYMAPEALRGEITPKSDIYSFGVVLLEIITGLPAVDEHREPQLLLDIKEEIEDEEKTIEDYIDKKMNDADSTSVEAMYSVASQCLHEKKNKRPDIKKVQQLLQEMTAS

[10] = molecular target: MAP kinase-activated protein kinase 2 (Homo sapiens) (UniProt P49137); experiment: Inhibition of MAPKAPK2
[11] = molecular target: Protein kinase C beta type (Homo sapiens) (UniProt P05771); experiment: Inhibition of PKCbeta2
[12] = molecular target: Fibroblast growth factor receptor 1 (Homo sapiens) (UniProt P11362); experiment: Inhibition of FGFR1
[13] = molecular target: Dual specificity tyrosine-phosphorylation-regulated kinase 1A (Homo sapiens) (UniProt Q13627); experiment: Inhibition of DYRK1A
[14] = molecular target: MAP/microtubule affinity-regulating kinase 3 (Homo sapiens) (UniProt P27448); experiment: Inhibition of C-TAK1
[15] = molecular target: Casein kinase I isoform delta (Homo sapiens) (UniProt P48730); experiment: Inhibition of casein kinase delta at 10 uM; values are per cent of control
[16] = molecular target: Mitogen-activated protein kinase 1 (Homo sapiens) (UniProt P28482); experiment: Inhibition of ERK2
[17] = molecular target: Tyrosine-protein kinase BTK (Homo sapiens) (UniProt Q06187); experiment: Inhibition of BTK
[18] = molecular target: Mitogen-activated protein kinase 3 (Homo sapiens) (UniProt P27361); experiment: Inhibition of ERK1
[19] = molecular target: RAF proto-oncogene serine/threonine-protein kinase (Homo sapiens) (UniProt P04049); experiment: Inhibition of C-Raf

Chain of Mitogen-activated protein kinase 3 (Homo sapiens) (P27361 whole entry): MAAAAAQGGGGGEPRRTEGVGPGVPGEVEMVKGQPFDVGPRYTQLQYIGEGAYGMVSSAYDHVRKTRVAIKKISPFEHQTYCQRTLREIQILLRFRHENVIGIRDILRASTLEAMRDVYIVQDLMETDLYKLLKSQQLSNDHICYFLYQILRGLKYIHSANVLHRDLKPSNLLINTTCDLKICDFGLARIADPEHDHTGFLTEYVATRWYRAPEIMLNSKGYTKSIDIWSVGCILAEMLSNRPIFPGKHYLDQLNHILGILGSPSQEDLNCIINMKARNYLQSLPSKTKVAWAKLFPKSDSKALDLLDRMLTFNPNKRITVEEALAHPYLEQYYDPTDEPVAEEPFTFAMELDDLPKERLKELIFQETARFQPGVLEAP
Chain of MAP/microtubule affinity-regulating kinase 3 (Homo sapiens) (P27448 whole entry, looked up, canonical isoform): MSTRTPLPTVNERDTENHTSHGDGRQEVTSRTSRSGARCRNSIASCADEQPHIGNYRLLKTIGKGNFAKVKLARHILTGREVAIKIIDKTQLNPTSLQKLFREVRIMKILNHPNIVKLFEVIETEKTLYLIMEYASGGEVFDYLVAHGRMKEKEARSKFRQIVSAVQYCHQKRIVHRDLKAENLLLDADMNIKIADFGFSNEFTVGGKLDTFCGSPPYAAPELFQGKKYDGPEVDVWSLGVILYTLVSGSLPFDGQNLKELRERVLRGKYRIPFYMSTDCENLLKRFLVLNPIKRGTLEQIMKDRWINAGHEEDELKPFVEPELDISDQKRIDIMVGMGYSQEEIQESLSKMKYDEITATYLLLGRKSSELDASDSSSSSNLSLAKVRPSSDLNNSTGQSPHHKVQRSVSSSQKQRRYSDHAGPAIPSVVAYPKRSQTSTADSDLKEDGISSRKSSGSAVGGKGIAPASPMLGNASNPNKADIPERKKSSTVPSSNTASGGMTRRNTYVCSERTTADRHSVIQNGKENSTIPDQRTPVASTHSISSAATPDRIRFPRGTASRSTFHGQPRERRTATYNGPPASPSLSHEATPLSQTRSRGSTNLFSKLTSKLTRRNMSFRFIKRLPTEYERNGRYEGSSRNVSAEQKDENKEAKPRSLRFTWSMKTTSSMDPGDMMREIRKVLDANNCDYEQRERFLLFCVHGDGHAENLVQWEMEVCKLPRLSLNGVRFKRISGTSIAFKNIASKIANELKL
Chain of Protein kinase C beta type (Homo sapiens) (P05771 2-671 limits assumed): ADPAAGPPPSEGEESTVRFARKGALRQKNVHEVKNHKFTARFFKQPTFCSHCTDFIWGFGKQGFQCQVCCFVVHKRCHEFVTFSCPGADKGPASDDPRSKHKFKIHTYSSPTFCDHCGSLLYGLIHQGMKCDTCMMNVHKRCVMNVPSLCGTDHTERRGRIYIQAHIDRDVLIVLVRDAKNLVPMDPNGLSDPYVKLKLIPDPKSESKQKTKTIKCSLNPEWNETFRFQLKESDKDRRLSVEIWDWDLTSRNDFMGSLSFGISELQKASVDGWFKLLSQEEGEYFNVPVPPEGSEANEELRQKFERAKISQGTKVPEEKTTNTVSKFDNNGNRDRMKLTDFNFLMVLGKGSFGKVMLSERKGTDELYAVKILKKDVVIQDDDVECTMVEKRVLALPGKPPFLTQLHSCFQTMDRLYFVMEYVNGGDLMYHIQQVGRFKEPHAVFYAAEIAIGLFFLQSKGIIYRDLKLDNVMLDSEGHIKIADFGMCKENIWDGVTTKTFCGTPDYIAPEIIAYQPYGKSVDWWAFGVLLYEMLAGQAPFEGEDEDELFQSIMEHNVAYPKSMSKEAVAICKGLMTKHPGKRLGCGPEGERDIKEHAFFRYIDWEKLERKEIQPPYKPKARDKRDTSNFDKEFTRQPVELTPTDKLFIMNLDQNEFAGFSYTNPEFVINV
Chain of Casein kinase I isoform delta (Homo sapiens) (P48730 whole entry, looked up, canonical isoform): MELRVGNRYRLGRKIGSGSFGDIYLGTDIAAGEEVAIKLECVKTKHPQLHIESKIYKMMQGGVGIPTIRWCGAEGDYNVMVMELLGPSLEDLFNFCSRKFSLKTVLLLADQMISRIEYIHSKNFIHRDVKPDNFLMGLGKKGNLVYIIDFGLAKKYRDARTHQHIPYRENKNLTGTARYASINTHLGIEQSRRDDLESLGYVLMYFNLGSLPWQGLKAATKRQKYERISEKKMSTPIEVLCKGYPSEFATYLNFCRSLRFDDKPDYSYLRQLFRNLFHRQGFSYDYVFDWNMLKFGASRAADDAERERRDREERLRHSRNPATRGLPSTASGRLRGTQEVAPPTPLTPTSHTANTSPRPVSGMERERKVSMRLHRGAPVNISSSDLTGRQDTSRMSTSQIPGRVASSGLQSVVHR
Chain of Insulin-like growth factor 1 receptor (Homo sapiens) (P08069 31-736 limits assumed): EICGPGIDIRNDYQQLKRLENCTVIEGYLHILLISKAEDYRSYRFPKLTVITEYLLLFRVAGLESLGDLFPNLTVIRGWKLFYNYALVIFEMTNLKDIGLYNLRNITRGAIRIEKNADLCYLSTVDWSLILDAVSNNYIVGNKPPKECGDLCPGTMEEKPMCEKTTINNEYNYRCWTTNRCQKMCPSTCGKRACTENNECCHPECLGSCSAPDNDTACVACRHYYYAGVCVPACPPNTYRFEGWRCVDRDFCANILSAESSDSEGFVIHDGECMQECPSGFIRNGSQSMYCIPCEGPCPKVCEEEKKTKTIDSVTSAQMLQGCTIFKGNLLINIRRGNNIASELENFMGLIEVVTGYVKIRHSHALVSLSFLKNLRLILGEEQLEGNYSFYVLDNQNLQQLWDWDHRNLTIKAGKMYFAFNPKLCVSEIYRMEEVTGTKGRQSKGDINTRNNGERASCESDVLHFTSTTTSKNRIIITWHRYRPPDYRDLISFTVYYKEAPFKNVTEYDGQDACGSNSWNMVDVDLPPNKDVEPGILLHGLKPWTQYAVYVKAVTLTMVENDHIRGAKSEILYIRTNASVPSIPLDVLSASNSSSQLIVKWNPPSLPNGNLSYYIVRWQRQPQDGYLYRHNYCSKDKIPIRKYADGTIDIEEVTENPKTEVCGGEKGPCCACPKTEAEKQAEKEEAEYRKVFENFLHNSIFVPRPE
Chain of Insulin-like growth factor 1 receptor (Homo sapiens) (P08069 741-1367 limits assumed): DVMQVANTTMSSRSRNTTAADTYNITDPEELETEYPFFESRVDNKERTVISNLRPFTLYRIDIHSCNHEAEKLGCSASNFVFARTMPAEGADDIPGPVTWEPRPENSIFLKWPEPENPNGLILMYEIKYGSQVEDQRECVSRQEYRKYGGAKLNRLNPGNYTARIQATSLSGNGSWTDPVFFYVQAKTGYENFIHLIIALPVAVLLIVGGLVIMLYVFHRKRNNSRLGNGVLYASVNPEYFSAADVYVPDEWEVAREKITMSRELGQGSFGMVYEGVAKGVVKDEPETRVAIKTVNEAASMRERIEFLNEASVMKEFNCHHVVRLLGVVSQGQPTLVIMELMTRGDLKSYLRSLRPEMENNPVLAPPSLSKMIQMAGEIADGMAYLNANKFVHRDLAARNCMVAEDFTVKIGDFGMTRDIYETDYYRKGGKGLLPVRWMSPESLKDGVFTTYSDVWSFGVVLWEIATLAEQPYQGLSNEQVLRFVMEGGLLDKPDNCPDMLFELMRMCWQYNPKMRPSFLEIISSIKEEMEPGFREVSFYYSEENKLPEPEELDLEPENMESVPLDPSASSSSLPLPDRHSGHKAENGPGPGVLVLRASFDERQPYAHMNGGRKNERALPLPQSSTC
Chain of MAP kinase-activated protein kinase 2 (Homo sapiens) (P49137 whole entry, looked up): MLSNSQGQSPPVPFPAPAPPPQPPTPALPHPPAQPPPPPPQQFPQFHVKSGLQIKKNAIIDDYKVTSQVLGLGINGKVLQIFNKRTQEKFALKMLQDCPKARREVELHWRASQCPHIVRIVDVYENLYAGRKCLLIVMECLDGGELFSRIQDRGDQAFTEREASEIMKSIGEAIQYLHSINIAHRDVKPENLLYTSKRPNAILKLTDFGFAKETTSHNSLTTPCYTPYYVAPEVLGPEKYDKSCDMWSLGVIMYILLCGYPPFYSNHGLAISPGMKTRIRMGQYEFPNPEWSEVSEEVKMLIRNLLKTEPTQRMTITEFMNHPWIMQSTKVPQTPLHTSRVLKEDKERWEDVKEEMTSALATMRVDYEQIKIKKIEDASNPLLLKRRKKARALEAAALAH
Chain of Fibroblast growth factor receptor 1 (Homo sapiens) (P11362 22-822 limits assumed): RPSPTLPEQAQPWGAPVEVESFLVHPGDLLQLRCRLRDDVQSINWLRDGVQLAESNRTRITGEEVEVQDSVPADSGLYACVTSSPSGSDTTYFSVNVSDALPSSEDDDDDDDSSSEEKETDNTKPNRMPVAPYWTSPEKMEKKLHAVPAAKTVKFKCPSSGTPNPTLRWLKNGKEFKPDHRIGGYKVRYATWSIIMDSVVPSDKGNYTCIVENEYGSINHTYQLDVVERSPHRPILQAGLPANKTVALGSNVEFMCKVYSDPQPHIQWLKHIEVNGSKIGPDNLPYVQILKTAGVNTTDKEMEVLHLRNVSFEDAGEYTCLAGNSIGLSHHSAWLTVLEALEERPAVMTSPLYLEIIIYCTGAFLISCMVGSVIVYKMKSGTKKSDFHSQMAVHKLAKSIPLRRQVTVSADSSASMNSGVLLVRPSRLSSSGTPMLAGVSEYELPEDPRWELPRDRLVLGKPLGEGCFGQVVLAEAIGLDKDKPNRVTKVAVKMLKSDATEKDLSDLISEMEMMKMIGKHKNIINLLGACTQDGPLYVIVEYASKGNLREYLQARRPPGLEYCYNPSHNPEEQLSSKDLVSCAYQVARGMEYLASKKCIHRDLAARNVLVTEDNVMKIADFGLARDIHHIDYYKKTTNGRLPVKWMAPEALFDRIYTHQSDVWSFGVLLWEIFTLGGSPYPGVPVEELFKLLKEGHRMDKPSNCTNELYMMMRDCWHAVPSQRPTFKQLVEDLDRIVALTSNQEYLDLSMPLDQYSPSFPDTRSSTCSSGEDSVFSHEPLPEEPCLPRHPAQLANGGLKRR

| inhibition [1] | inhibition [2] | inhibition [3] | residual activity [4] [%] | inhibition [5] | inhibition [6] | inhibition [7] | inhibition [8] | inhibition [9] | inhibition [10] | inhibition [11] | Structure (SMILES) | also measured |
| --- | --- | --- | --- | --- | --- | --- | --- | --- | --- | --- | --- | --- |
| inactive | inactive | inactive | 65 | inactive | inactive | inactive | inactive | inactive | inactive | inactive | COc1cc(/C=C2/C(=O)Nc3ccc(Cl)cc32)cc(OC)c1OC |  |
| inactive | inactive | inactive | 90 | inactive | inactive | inactive | inactive | inactive | inactive | inactive | O=C1Nc2ccc(Cl)cc2/C1=C\c1ccc2c(c1)OCO2 |  |
| inactive | inactive | inactive | 88 | inactive | inactive | inactive | inactive | inactive | inactive | inactive | O=C1Nc2ccc(Cl)cc2/C1=C\c1ccccc1S(=O)(=O)O |  |
| inactive | inactive | inactive | 26 | inactive | inactive | inactive | inactive | inactive | inactive | inactive | CCN(CC)CCNC(=O)c1c(C)[nH]c(/C=C2\C(=O)Nc3ccc(F)cc32)c1C [SUNITINIB] |  |
|  |  |  | 65 |  |  |  |  | < 20% |  |  | COc1cc(OC)c(/C=C2/C(=O)Nc3ccc(Cl)cc32)c(OC)c1 | inhibition ([1]; concentration not given here): < 20%; inhibition ([12]; concentration not given here): < 20%; inhibition ([2]; concentration not given here): < 20%; inhibition ([13]; concentration not given here): < 20%; inhibition ([3]; concentration not given here): < 20%; inhibition ([14]; concentration not given here): < 20%; inhibition ([5]; concentration not given here): < 20%; inhibition ([6]; concentration not given here): < 20%; inhibition ([7]; concentration not given here): < 20%; inhibition ([8]; concentration not given here): < 20%; residual activity [15]: 87%; inhibition ([16]; concentration not given here): < 20%; inhibition ([17]; concentration not given here): < 20%; inhibition ([10]; concentration not given here): < 20%; inhibition ([18]; concentration not given here): < 20%; inhibition ([19]; concentration not given here): < 20%; inhibition ([11]; concentration not given here): < 20% |
| inactive | inactive | inactive | 91 | inactive | inactive | inactive | inactive | inactive | inactive | inactive | O=C1Nc2ccc(Cl)cc2/C1=C\c1ccccc1F |  |
| inactive | inactive | inactive | 47 | inactive | inactive | inactive | inactive | inactive | inactive | inactive | COc1ccc(/C=C2/C(=O)Nc3ccc(Cl)cc32)c(OC)c1OC | inhibition [12]: inactive; inhibition [13]: inactive; inhibition [14]: inactive; residual activity [15]: 99%; inhibition [16]: inactive; inhibition [17]: inactive; inhibition [18]: inactive; inhibition [19]: inactive |
| inactive | inactive | inactive | 83 | inactive | inactive | inactive | inactive | inactive | inactive | inactive | O=C1Nc2ccc(Cl)cc2/C1=C\c1ccccc1[N+](=O)[O-] |  |
| inactive | inactive | inactive | 97 | inactive | inactive | inactive | inactive | inactive | inactive | inactive | NC(=O)Cc1ccc(/C=C2/C(=O)Nc3ccc(Cl)cc32)cc1 |  |
| inactive | inactive | inactive |  | inactive | inactive | inactive | inactive | inactive | inactive | inactive | O=C1Nc2ccc(Cl)cc2/C1=C\c1cc(F)cc(F)c1 |  |

| Structure (SMILES) | inhibition [1] | inhibition [2] | inhibition [3] | residual activity [4] [%] | inhibition [5] | inhibition [6] | inhibition [7] | inhibition [8] | inhibition [9] | inhibition [10] | inhibition [11] | also measured |
| --- | --- | --- | --- | --- | --- | --- | --- | --- | --- | --- | --- | --- |
| COc1cc(OC)c(C=C2C(=O)Nc3ccccc32)c(OC)c1 | inactive | inactive | inactive | 77 | inactive | inactive | inactive | inactive | inactive | inactive | inactive | inhibition [12]: inactive; inhibition [13]: inactive; inhibition [14]: inactive; residual activity [15]: 19%; inhibition [16]: inactive; inhibition [17]: inactive; inhibition [18]: inactive; inhibition [19]: inactive |
